Data as given in patent US20080312344A1, “DENDRIMERS MULTIVALENTLY SUBSTITUTED WITH ACTIVE GROUPS” (priority 2005, published 2008).

Tests used:
[1] = target: T1, rat receptor NKRPI (Rattus norvegicus, UniProt P27471); assay: ELISA type assay, interaction with NKRPI receptor; type: binding
T1 sequence (P27471 1-223): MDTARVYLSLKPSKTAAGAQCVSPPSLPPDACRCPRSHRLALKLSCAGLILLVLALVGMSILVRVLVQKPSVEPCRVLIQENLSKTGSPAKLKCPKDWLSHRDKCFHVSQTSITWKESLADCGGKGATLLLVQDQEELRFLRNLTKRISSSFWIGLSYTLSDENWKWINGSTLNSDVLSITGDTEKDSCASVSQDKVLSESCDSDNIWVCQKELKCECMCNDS
Description: (§1) In addition, as a model for the interference with the natural killer cells of the immune system, the compounds were evaluated in an ELISA type assay for their interaction with the rat receptor NKRPI and the human CD 69 receptor.

[2] = test system: Candida albicans (strain CBS 562); assay: adhesion inhibition of Candida albicans; type: cell-based; settings: CBS562
Description: Di-, tetra- and octavalent GINAc-linked “click” glycodendrimers as depicted herein-below were evaluated as adhesion inhibitors of Candida albicans (strain CBS 562) and compared to the free monosaccharide GlcNAc (N-acetyl glucosamine).

[3] = target: T2, human CD 69 receptor (Homo sapiens, UniProt Q07108); assay: ELISA type assay, interaction with CD 69 receptor; type: binding
T2 sequence (Q07108 1-199): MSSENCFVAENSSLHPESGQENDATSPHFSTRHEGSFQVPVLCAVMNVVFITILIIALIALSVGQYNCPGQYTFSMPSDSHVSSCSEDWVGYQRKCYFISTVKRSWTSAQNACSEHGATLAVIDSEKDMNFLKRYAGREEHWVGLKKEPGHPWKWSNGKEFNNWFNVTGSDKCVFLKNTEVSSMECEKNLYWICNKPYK
Description: as §1

SMILES | IC50 ([1]; read-out: −log IC50 (NKRPI) (converted)) | inhibition at 113 µM [2] | IC50 ([3]; read-out: −log IC50 (CD69) (converted)) | −log IC50 (NKRPI) [1] | −log IC50 (CD69) [3]
CC(=O)N[C@H]1C(O)O[C@H](CO)[C@@H](O)[C@@H]1O (some centres unmarked) [GlcNAc, N-acetyl glucosamine, reference compound] | 1000 nM | 79% | 5.01 µM |  | 
COC(=O)c1cc(OCCNC(=O)c2cc(OCc3cn(CCCOC4OC(CO)C(O)C(O)C4NC(C)=O)nn3)cc(OCc3cn(CCCOC4OC(CO)C(O)C(O)C4NC(C)=O)nn3)c2)cc(OCCNC(=O)c2cc(OCc3cn(CCCOC4OC(CO)C(O)C(O)C4NC(C)=O)nn3)cc(OCc3cn(CCCOC4OC(CO)C(O)C(O)C4NC(C)=O)nn3)c2)c1 (centres unmarked) [TETRA] |  |  |  | 8.5 | 7.54
